Experimental data: ChEMBL document CHEMBL4330132, “5-Keto-3-cyano-2,4-diaminothiophenes as selective maternal embryonic leucine zipper kinase inhibitors” (Bioorg Med Chem Lett, 2019)

Columns and labels:
[1] = target: Activin receptor type-1B (Homo sapiens) (UniProt P36896); test: Binding affinity to wild-type human ACVR1B (S187 to I505 residues) expressed in bacterial expression system assessed as residual binding level at 1 uM by Kinomescan method relative to control
[2] = test system: Phosphatidylinositol 4,5-bisphosphate 3-kinase catalytic subunit alpha isoform (Homo sapiens), P42336 [E545K]; test: Binding affinity to human partial length PIK3CA E545K mutant (R108 to N1068 residues) expressed in mammalian expression system assessed as residual binding level at 1 uM by Kinomescan method relative to control
[3] = target: Mitogen-activated protein kinase kinase kinase 4 (Homo sapiens) (UniProt Q9Y6R4); test: Binding affinity to wild-type human partial length MAP3K4 (G1319 to E1608 residues) expressed in bacterial expression system assessed as residual binding level at 1 uM by Kinomescan method relative to control
[4] = target: Epithelial discoidin domain-containing receptor 1 (Homo sapiens) (UniProt Q08345); test: Binding affinity to wild-type human partial length DDR1 (R565 to V876 residues) expressed in bacterial expression system assessed as residual binding level at 1 uM by Kinomescan method relative to control
[5] = target: Rhodopsin kinase GRK7 (Homo sapiens) (UniProt Q8WTQ7); test: Binding affinity to wild-type human full length GRK7 (M1 to L553 residues) expressed in mammalian expression system assessed as residual binding level at 1 uM by Kinomescan method relative to control
[6] = target: Testis-specific serine/threonine-protein kinase 1 (Homo sapiens) (UniProt Q9BXA7); test: Binding affinity to wild-type human full length TSSK1B (M1 to Q367 residues) expressed in bacterial expression system assessed as residual binding level at 1 uM by Kinomescan method relative to control
Testis-specific serine/threonine-protein kinase 1 (Homo sapiens), sequence (Q9BXA7 whole entry, the tested form may be a part): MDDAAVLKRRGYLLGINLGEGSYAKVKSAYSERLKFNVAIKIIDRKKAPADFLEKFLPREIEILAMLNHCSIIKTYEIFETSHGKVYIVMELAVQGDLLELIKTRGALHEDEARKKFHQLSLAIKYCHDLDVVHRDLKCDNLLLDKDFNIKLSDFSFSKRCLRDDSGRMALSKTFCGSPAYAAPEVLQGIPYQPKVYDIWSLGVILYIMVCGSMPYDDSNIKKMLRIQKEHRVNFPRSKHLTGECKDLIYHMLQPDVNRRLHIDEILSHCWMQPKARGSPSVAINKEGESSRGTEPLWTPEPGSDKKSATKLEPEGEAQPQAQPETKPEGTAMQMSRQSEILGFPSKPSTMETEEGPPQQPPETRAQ

Epithelial discoidin domain-containing receptor 1 (Homo sapiens), sequence (Q08345 whole entry, the tested form may be a part): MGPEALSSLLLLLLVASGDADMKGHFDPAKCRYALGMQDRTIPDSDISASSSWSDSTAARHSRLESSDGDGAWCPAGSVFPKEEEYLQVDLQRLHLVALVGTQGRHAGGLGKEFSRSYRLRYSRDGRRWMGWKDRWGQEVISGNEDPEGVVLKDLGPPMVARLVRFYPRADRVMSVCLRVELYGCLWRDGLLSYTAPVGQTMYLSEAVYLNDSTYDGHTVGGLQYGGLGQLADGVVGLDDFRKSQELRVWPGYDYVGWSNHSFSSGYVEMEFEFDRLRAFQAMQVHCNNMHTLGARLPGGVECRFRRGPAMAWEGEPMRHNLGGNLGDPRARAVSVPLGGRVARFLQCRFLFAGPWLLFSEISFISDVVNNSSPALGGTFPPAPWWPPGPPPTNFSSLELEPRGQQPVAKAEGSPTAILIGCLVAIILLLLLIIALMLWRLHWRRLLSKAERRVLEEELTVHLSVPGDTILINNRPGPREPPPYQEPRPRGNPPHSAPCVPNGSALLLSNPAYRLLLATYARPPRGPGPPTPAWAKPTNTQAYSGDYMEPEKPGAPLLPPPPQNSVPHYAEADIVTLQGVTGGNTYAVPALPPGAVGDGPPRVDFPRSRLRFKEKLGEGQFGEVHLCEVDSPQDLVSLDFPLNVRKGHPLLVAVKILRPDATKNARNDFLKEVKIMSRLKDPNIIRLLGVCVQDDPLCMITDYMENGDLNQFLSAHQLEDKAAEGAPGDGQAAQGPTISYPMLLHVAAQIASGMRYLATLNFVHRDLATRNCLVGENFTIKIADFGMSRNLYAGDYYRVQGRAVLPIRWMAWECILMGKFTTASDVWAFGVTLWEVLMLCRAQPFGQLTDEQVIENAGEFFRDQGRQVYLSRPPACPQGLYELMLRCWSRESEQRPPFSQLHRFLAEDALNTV
Activin receptor type-1B (Homo sapiens), sequence (P36896 whole entry, the tested form may be a part, canonical isoform): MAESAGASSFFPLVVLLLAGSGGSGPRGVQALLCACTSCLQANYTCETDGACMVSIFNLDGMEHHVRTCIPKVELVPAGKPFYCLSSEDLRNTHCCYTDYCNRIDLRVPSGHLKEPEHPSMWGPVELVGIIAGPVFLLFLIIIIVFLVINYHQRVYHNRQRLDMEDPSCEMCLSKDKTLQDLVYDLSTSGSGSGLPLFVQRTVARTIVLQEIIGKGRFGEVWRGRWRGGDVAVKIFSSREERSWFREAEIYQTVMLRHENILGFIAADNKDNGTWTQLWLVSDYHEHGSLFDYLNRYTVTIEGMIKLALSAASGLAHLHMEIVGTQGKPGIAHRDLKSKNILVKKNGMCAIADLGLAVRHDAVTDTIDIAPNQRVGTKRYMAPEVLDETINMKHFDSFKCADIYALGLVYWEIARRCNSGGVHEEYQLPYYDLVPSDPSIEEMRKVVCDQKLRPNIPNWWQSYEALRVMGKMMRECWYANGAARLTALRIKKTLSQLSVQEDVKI
Rhodopsin kinase GRK7 (Homo sapiens), sequence (Q8WTQ7 whole entry, the tested form may be a part): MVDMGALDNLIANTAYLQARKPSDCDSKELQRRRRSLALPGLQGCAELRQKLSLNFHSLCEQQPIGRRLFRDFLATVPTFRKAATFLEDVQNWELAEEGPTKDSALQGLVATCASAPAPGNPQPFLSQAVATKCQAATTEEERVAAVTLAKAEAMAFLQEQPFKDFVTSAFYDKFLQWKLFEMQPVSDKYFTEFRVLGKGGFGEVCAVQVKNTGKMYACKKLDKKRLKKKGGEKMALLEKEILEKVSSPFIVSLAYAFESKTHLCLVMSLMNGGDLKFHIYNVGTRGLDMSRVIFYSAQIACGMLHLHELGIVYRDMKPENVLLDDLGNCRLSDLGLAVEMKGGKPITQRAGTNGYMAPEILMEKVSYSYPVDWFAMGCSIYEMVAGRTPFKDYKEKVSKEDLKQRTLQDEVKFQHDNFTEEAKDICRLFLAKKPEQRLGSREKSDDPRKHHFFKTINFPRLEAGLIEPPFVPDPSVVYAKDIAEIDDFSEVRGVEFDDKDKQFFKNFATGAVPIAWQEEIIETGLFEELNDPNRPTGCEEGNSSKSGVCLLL
Phosphatidylinositol 4,5-bisphosphate 3-kinase catalytic subunit alpha isoform (Homo sapiens), P42336 [E545K], sequence (P42336 whole entry E545K, the tested form may be a part, canonical isoform): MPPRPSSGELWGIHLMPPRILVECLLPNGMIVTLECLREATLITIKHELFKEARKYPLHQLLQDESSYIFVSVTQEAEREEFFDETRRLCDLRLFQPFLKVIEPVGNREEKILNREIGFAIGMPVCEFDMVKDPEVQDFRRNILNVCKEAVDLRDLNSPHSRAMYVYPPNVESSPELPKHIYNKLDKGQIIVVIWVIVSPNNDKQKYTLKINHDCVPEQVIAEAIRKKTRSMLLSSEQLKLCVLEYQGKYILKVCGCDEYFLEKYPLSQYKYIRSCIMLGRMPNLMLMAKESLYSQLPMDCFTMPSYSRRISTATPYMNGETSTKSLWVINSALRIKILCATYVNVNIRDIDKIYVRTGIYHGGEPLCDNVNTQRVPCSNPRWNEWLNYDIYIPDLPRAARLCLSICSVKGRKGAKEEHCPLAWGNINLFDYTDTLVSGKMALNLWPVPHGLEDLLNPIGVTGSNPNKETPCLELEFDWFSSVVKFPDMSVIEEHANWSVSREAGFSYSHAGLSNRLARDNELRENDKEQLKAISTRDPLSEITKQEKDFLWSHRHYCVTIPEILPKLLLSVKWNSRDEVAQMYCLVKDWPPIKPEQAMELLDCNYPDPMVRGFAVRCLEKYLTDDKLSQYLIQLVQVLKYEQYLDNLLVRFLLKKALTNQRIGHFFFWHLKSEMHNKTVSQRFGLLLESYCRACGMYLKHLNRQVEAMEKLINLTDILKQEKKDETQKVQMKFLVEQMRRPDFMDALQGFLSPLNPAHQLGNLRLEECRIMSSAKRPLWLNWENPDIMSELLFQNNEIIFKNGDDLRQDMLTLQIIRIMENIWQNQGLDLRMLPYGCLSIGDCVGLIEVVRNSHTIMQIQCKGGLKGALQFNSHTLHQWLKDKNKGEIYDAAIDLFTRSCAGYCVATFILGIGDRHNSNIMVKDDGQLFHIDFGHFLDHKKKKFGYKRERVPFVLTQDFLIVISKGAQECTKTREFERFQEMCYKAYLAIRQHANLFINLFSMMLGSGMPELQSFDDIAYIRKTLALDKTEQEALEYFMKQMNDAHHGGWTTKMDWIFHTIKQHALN
Mitogen-activated protein kinase kinase kinase 4 (Homo sapiens), sequence (Q9Y6R4 whole entry, the tested form may be a part): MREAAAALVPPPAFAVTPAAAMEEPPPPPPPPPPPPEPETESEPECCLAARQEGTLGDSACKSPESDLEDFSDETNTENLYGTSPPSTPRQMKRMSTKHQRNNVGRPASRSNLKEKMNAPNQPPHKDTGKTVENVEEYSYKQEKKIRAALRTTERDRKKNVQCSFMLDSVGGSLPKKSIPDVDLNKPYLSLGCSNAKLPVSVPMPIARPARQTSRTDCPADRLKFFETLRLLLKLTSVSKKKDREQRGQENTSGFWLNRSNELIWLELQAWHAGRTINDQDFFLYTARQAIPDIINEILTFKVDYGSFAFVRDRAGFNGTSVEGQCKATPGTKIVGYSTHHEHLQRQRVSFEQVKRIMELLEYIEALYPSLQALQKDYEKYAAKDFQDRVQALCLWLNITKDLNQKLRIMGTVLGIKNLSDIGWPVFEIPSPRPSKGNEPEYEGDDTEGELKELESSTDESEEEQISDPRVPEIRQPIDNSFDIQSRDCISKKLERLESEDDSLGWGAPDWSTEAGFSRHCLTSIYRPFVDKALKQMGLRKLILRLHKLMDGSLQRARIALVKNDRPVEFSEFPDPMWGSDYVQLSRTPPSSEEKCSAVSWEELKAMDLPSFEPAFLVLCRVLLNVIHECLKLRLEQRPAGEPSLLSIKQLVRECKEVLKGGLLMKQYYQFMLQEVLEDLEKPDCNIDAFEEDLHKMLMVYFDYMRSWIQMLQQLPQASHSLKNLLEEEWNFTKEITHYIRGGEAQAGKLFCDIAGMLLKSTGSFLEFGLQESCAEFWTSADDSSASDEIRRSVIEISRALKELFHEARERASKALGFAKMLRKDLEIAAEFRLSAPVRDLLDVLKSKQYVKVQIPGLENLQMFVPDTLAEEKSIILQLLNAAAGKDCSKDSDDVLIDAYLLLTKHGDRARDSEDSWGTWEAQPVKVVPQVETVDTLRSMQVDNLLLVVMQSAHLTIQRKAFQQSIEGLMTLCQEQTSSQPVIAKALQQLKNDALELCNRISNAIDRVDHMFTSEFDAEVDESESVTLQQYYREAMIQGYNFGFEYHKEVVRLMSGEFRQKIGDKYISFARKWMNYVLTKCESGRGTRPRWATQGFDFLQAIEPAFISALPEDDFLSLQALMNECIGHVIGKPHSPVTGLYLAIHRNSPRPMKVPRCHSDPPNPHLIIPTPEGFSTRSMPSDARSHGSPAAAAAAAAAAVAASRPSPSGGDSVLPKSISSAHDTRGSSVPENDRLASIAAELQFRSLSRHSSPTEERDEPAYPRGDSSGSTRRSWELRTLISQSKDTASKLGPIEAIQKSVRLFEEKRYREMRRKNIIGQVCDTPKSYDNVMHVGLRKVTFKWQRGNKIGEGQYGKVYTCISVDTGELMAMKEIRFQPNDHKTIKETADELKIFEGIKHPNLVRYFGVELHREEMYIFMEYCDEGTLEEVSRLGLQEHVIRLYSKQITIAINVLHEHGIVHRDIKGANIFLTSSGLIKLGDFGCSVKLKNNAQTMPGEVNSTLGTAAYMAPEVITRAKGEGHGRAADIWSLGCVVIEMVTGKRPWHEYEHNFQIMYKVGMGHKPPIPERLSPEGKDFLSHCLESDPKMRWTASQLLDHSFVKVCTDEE

CC(C)Nc1sc(C(=O)c2ccc(Cl)s2)c(N)c1C#N
Activity [1]: 82%
Activity [2]: 80%
Activity [3]: 100%
Activity [4]: 63%
Activity [5]: 95%
Activity [6]: 100%
